Results taken from article PMC7758436 (Frontiers in Veterinary Science, 2020).
Like-named read-outs stand apart in the source and are kept apart here.

How the values were obtained:
[1] = tested on: promastigote forms of L. (L.) amazonensis; experiment: In vitro leishmanicidal activity, growth inhibition of promastigote forms (counting in Neubauer's chamber); format: cell-based, Leishmania (Leishmania) amazonensis; settings: value (95% CI)
Procedure: (§1) L. (L.) amazonensis (IFLA/BR/67/PH8.) was maintained as promastigote forms in Roswell Park Memorial Institute medium (RPMI 1640 medium) (Gibco, Grand Island, NY, USA), supplemented with antibiotics (penicillin 10.000 UI/mL and streptomycin […]) (Cultilab, Campinas, BR), and 10% bovine fetal serum (FBS) (Cultilab), at 25°C. L. (L.) infantum (MHOM/BR/1972/LD) was maintained as promastigote forms in M199 medium (Gibco), supplemented with 10% FBS (Cultilab), antibiotics (Cultilab), 5% human urine and 0.25% hemin (Sigma-Aldrich) at 25°C, and amastigote forms were obtained from the spleen of golden hamsters after 60 to 70 days of infection ([21]). Peritoneal murine macrophages were obtained by washing the peritoneal cavity of BALB/c mice with RPMI 1640 medium (Gibco) after 72 h of the application of 5 mL of the sodium thioglycolate (Sigma-Aldrich) at 3%, and then were cultivated in RPMI 1640 medium (Gibco) supplemented with antibiotics and 10% FBS (Gibco), at 37°C in a 5% CO2 humidified incubator.
Initially, a screening was performed against promastigote forms of L. (L.) amanzonensis. […] […], and the leishmanicidal activity was determined by the inhibition of growth of the promastigote forms by counting the total number of live promastigote in Neubauer's chamber (Global Glass, São Paulo, BR) using an optical microscope (Nikon New York, USA). […] To evaluate the leishmanicidal activity against amastigote forms, peritoneal murine macrophages were seemed (2 × 10^5 cells per well) in 24-well plates on slide chambers and incubated at 37°C for 24 h. […] The slides were stained with Giemsa (Synth, Diadema, BR), analyzed using an optical microscopy (Nikon), and the parasite load was defined by the number of infected macrophages X number of intracellular amastigotes/number of total macrophages ([23]). Parasites cultured in medium with 0.1% were used as negative control and parasites cultured in medium with MA or AmpB were used as positive controls.

[2] = tested on: amastigote forms of L. (L.) amazonensis; experiment: In vitro leishmanicidal activity against intracellular amastigote forms in peritoneal murine macrophages (Giemsa, parasite load); format: cell-based; settings: Leishmania amazonensis, Macrophage, 48 h, value (95% CI)
Procedure: as §1
(§2) Initially, a screening was performed against promastigote forms of L. (L.) amanzonensis. […] The slides were stained with Giemsa (Synth, Diadema, BR), analyzed using an optical microscopy (Nikon), and the parasite load was defined by the number of infected macrophages X number of intracellular amastigotes/number of total macrophages ([23]). […]

[3] = tested on: promastigote forms of L. (L.) infantum; experiment: In vitro leishmanicidal activity, growth inhibition of promastigote forms (counting in Neubauer's chamber); format: cell-based, Leishmania (Leishmania) infantum
Procedure: as §1
Initially, a screening was performed against promastigote forms of L. (L.) amanzonensis. […] The plates were incubated at same conditions previously described during 48 h, and the leishmanicidal activity was determined by the inhibition of growth of the promastigote forms by counting the total number of live promastigote in Neubauer's chamber (Global Glass, São Paulo, BR) using an optical microscope (Nikon New York, USA). […] To evaluate the leishmanicidal activity against amastigote forms, peritoneal murine macrophages were seemed (2 × 10^5 cells per well) in 24-well plates on slide chambers and incubated at 37°C for 24 h. […] The slides were stained with Giemsa (Synth, Diadema, BR), analyzed using an optical microscopy (Nikon), and the parasite load was defined by the number of infected macrophages X number of intracellular amastigotes/number of total macrophages ([23]). Parasites cultured in medium with 0.1% were used as negative control and parasites cultured in medium with MA or AmpB were used as positive controls.

[4] = tested on: amastigote forms of L. (L.) infantum; experiment: In vitro leishmanicidal activity against intracellular amastigote forms in peritoneal murine macrophages (Giemsa, parasite load); format: cell-based, Leishmania (Leishmania) infantum; settings: 48 h, read-out: IC50 L (L.) infantum Amastigote 48 h
Procedure: as §1, §2

[5] = In vitro cytotoxic activity, MTT assay; format: cell-based, BALB/c mice; settings: BALB/c, mouse, 48 h, MTT, value (95% CI)
Procedure: as §1
(§3) The cells were incubated at 37°C in a 5% CO2 humidified incubator at 37°C during 48 h, and the cytotoxic activity was determined using MTT assay ([23]). Cells cultured in medium with 0.1% DMSO were used as negative control and cells cultured in medium with 25% DMSO were used as positive control.

[6] = tested on: Peritoneal murine macrophages; experiment: In vitro cytotoxic activity, MTT assay; format: cell-based, BALB/c mice
Procedure: as §1, §3

[7] = tested on: Defibrinated sheep blood erythrocytes; experiment: In vitro hemolytic activity; format: cell-based; settings: 400 μM; 30 min at 37°C
Procedure: (§4) Defibrinated sheep blood (Newprov, Pinhais, PR, BR) was diluted in 0.9% saline solution and a suspension at 3% of erythrocytes was transferred (100 μL) in 96-well plates. […] The hemolytic activity was determined in the cell supernatant by optical density reading at 415 nm (Libra S12–Biochrom–Cambridge, RU) Distilled water was used as a positive control, and 0.9% saline solution with 0.1% DMSO was used as negative control.

L. (L.) infantum = experiment: In vivo leishmanicidal activity in L. (L.) infantum-infected hamsters (limiting dilution); design: species or system golden hamsters (Mesocricetus auratus); settings: for reduction of parasite burden in liver / reduction of parasite burden in spleen: intraperitoneal, eight consecutive days, vs negative control group; for survival rate / average body weight: infected hamsters; for survival rate: after the treatment (data not shown); for average body weight: among negative, LicoA and MA groups
Procedure: Male golden hamsters were infected by intraperitoneal route with 1.0 × 10^8 L. (L.) infantum amastigotes. Four weeks after infection, the animals were randomly separated in 4 groups of 6 animals each. […] Negative control group received the same number of injections of phosphate buffered saline (PBS) and animals from positive control group was treated with MA (Sanofi-Aventis) at dose 50 mg/kg of body weight during eight consecutive days by intraperitoneal route. Thirty five days after treatment the animals were sacrificed and the parasite burden was evaluated both in spleen and liver by limiting dilution method ([24]).

[8] = Hepatotoxicity in no-infected hamsters, serum ALT and AST; format: in vivo, golden hamsters (Mesocricetus auratus); settings: for serum levels of aminotransaminases (ALT, AST): no-infected hamsters, 15 days, vs negative control group
Procedure: After this period, serum concentrations of alanine aminotransferase (ALT) and aspartate aminotransferase (AST) were determined using sets of commercial reagents (Labtest, Minas Gerais, Brazil). Negative control group received the same number of injections of PBS.

amastigotes = settings: 2.5 μM, 72 h of incubation; ref [10], [11]; cited from earlier work
L. (L.) major = settings: 2.5 and 5 mg/kg of body weight, intraperitoneal, 7 days after infection during 39 days; ref [11]; cited from earlier work
L. (L.) donovani = settings: 20 mg/kg of body weight per day, intraperitoneal, six consecutive days; vs untreated control; ref [11]; cited from earlier work
[9] = design: method as in PMID 29698432; settings: ref [38]; cited from earlier work
HFF cell = settings: ref [32]; cited from earlier work
erythrocytes = settings: after 24 h; ref [33]; cited from earlier work
[10] = ref [11], cited from earlier work
[11] = In vitro hemolytic activity; format: cell-based, sheep; settings: sheep
Procedure: as §4

[12] = Leishmania amazonensis, 24 h, read-out: IC50 L (L.) amazonensis Promastigote 24 h
[13] = Leishmania amazonensis, 48 h, read-out: IC50 L (L.) amazonensis Promastigote 48 h
[14] = 48 h, MTT, value (95% CI), read-out: CC50 Peritoneal murine macrophages 48 h
[15] = 20 mg/kg of body weight per day
[16] = 50 mg/kg of body weight per day
[17] = 50 mg/kg of body weight per day intraperitoneally

Molecule: C=CC(C)(C)c1cc(/C=C/C(=O)c2ccc(O)cc2)c(OC)cc1O [LicoA (1), Licochalcone A]
- IC50 [1, 12]: 20.3 µM
- IC50 [1, 13]: 3.88 µM
- IC50 [2]: 36.8 µM
- IC50 ([3]; Leishmania infantum, 24 h, read-out: IC50 L (L.) infantum Promastigote 24 h): 41.1 µM
- IC50 ([3]; Leishmania infantum, 48 h, read-out: IC50 L (L.) infantum Promastigote 48 h): 12.5 µM
- IC50 ([4]; Leishmania infantum, Macrophage): 29.6 µM
- CC50 at 48 h ([5]; read-out: CC50 Peritoneal murine macrophages 48 h): 123 µM
- CC50 [6, 14]: 123 µM
- hemolytic activity [7]: about 30%
- reduction of parasite burden in liver (L. (L.) infantum; [15]): 15.27%
- reduction of parasite burden in spleen (L. (L.) infantum; [15]): 20.69%
- reduction of parasite burden in liver (L. (L.) infantum; [16]): 43.67%
- reduction of parasite burden in spleen (L. (L.) infantum; [16]): 39.81%
- survival rate (L. (L.) infantum): 100%
- average body weight (L. (L.) infantum): no significant variation
- hepatotoxicity ([8]; LicoA-treated vs non-treated groups, serum aminotransaminases): No evidence of hepatotoxicity
- serum levels of aminotransaminases (ALT, AST) ([8]; 20 mg/kg of body weight per day intraperitoneally): no significant alterations
- serum levels of aminotransaminases (ALT, AST) [8, 17]: no significant alterations
- effect on number of amastigotes (amastigotes): reduction in the number of amastigotes
- lesion development (L. (L.) major): completely prevented lesion development
- reduction of parasite load in the liver and the spleen (L. (L.) donovani): > 96%
- effect against Acetaminophen overdose-induced hepatotoxicity [9]: protective effect
- toxicity in HFF cell in vitro (HFF cell): low-toxicity
- concentration inducing hemolysis (cell shrinkage and phospholipid scrambling of the cell membrane) (erythrocytes): higher than 30 μM
- toxicity, intraperitoneal ([10]; 100 mg/kg in rats and 150 mg/kg in hamsters, intraperitoneal): did not show any toxicity
- signs of toxicity, oral ([10]; doses higher than 1,000 mg/kg, orally once a day for 2 weeks): did not cause any signs of toxicity

Molecule: C[C@@H]1[C@H](O)[C@@H](C)/C=C/C=C/C=C/C=C/C=C/C=C/C=C/[C@H](O[C@@H]2O[C@H](C)[C@@H](O)[C@H](N)[C@@H]2O)C[C@@H]2O[C@](O)(C[C@@H](O)C[C@@H](O)[C@H](O)CC[C@@H](O)C[C@@H](O)CC(=O)O[C@H]1C)C[C@H](O)[C@H]2C(=O)O [AmpB, amphotericin B, reference compound]
- IC50 [1, 12]: 0.27 µM
- IC50 [1, 13]: 0.065 µM
- IC50 [2]: 0.022 µM
- hemolysis at 30 min, 100 µM [11]: 60%
- hemolysis at 30 min, 200 µM [11]: 100%

Molecule: COc1ccc(C(=O)/C=C/c2ccc(OCC=C(C)C)c(OC)c2)cc1 [LLA1 (1a), (E)-3-(3-methoxy-4-((3-methylbut-2-en-1-yl)oxy)phenyl)-1-(4-methoxyphenyl)prop-2-en-1-one]
- IC50 [1, 12]: 74.9 µM
- IC50 [1, 13]: 67.2 µM
- CC50 at 48 h ([5]; peritoneal murine macrophages): > 400 µM

Molecule: (E)-3-(4-hydroxy-3-methoxyphenyl)-1-(4-hydroxyphenyl)prop-2-en-1-one [LLA2 (2a)]
- IC50 ([1]; 24 h, read-out: IC50 L (L.) amazonensis Promastigote 24 h): 301 µM
- IC50 ([1]; 48 h, read-out: IC50 L (L.) amazonensis Promastigote 48 h): 287 µM
- CC50 [6]: > 400 µM

Molecule: meglumine antimoniate [MA, reference compound]
- IC50 ([3]; 24 h, value (95% CI), read-out: IC50 L (L.) infantum Promastigote 24 h): > 400 µM
- IC50 ([3]; 48 h, value (95% CI), read-out: IC50 L (L.) infantum Promastigote 48 h): > 400 µM
- IC50 ([4]; in peritoneal murine macrophages, value (95% CI)): > 400 µM
- cytotoxicity at concentrations evaluated ([6]; 12.5–400 μM, 48 h): no cytotoxicity
- CC50 [6, 14]: > 400 µM
- reduction of parasite burden in liver (L. (L.) infantum; [16]): 55.87%
- reduction of parasite burden in spleen (L. (L.) infantum; [16]): 63.57%
- survival rate (L. (L.) infantum): 100%
- average body weight (L. (L.) infantum): no significant variation
- serum levels of aminotransaminases (ALT, AST) [8, 17]: significant increase
